Results reported in PMC6413125 (International Journal of Molecular Sciences, 2019).

What was measured:
Format in all cases: biochemical
[1] = biological target: T1, nucleophosmin 1 (NPM1_264–277) (Homo sapiens, UniProt P06748); test: ESI-MS adducts; IC50 from ThT aggregation assay; CD
T1 construct: gene NPM1; helix H2 of C-terminal domain, residues 264–277 ([…])

[2] = biological target: T2, Yeast Prion Protein Sup35p (Sup35p7–13) (Saccharomyces cerevisiae, UniProt P05453)
T2 construct: gene SUP35

Aβ21–40 = biological target: T3, Aβ21–40 (Homo sapiens, UniProt P05067); test: ESI-MS adducts ([…] and […]); IC50 from ThT aggregation assay
T3 construct: gene APP
T3 sequence (P05067 692-711): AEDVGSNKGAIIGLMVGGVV

`CSC1=[S+][Pt-2]([Cl])([S+](C)(C)=O)[O]C(c2cccc(O)c2)=C1` (stereo not drawn) [compound 1, 1] was tested, and the IC50 [1] was 62.3 ± 1.3 µM, the IC50 [2] was 55 ± 1.12 µM and the IC50 (Aβ21–40) was 19.9 ± 1.6 µM.
